Laboratory results: paper PMC5394143 (Clinical Drug Investigation, 2017)
Read-outs that look alike come from different tables or passages of the source.

What was measured:
CYP3A4 [1] = details: cited from earlier work
clinical [2] = details: both, human, plasma, oral, 50 mg
[3] = for AUC(0-inf) / half-life / Cmax / AUC(0-t): both, human, plasma; for AUC(0-inf) / half-life / Cmax: oral; for AUC(0-t): po
CYP3A4 [4] = details: cited from earlier work; remark: listed apart in the source
clinical [5] = details: both, human, plasma, po, 50 mg
[6] = tested on: urinary free cortisol (UFC); details: 2–30 mg twice daily, 10 weeks, 11/12 patients with Cushing’s disease; cited from earlier work
CYP3A4/5 = details: single dose of 50 mg osilodrostat
[7] = tested on: urinary free cortisol (UFC); details: after 22 weeks of treatment, 15/19 patients; cited from earlier work
CYP1A2 = details: single dose of 50 mg osilodrostat
[8] = cited from earlier work
CYP2D6 = CYP2D6 (Homo sapiens, UniProt P10635); details: single dose of 50 mg osilodrostat
[9] = safety set, 20 subjects
[10] = C max, substrate alone, geometric mean (CV%)
[11] = substrate alone, geometric mean (CV%)

Chain of CYP2D6 (P10635 whole entry): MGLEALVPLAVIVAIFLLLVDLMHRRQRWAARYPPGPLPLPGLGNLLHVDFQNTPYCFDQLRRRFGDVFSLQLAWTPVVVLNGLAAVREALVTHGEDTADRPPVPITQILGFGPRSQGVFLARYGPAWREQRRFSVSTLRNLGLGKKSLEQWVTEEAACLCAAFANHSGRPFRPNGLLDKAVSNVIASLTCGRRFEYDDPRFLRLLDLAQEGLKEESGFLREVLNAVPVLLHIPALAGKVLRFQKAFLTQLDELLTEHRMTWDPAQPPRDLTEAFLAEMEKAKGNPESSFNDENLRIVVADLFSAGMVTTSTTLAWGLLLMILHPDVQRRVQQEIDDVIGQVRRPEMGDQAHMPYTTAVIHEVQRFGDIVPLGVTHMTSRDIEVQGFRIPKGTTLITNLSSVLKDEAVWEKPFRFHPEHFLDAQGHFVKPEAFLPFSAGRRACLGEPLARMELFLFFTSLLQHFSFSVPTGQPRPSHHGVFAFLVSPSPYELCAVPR

## CC(=O)N1CCN(c2ccc(OCC3COC(Cn4ccnc4)(c4ccc(Cl)cc4Cl)O3)cc2)CC1 (stereo not drawn) [Ketoconazole, ketoconazole]
CYP3A4 [1]; based on midazolam AUC change
  FDA inhibitor classification, CYP3A4: strong inhibitor (strong inhibitor, ≥5-fold increase in AUC)
CYP3A4 [1]
  increase in midazolam AUC after ketoconazole administration: ≤ 16 fold

## Cc1ncc2n1-c1ccc(Cl)cc1C(c1ccccc1F)=NC2 [Midazolam, midazolam]
Clinical [2]
  AUC(0-t): 31.7 ng·h/mL
  Cmax: 12.8 ng/mL
  half-life: 289 min
[3]
  AUC(0-inf): 22 ng·h/mL
  half-life: 266 min
[3]; [10]
  Cmax: 8.78 ng/mL
[3]; [11]
  CL/F: 91.0 (39.6) L/h

## Cn1c(=O)c2c(ncn2C)n(C)c1=O [Caffeine, caffeine]
Clinical [2]
  AUC(0-inf): 41900 ng·h/mL
  AUC(0-t): 41100 ng·h/mL
  Cmax: 2640 ng/mL
  half-life: 443 min
[3]
  AUC(0-inf): 16200 ng·h/mL
  Cmax: 2500 ng/mL
  half-life: 323 min
  AUC(0-t): 17200 ng·h/mL
[3]; [11]
  CL/F: 6.18 (44.8) L/h

## COc1ccc2[nH]c([S+]([O-])Cc3ncc(C)c(OC)c3C)nc2c1 (stereo not drawn) [Omeprazole, omeprazole]
Clinical [2]
  AUC(0-inf): 885 ng·h/mL
  AUC(0-t): 852 ng·h/mL
  Cmax: 420 ng/mL
[3]
  AUC(0-inf): 618 ng·h/mL
  half-life: 46.2 min
  AUC(0-t): 460 ng·h/mL
[3]; [11]
  C max: 271 (69.7) ng/mL
  CL/F: 32.3 (92.9) L/h

## Clc1ccc(C(c2ccccc2Cl)C(Cl)Cl)cc1 (stereo not drawn) [Mitotane, mitotane]
CYP3A4 [4]
  CYP3A4 induction: strong inducer

## COc1ccc2c(c1)[C@]13CCCC[C@@H]1[C@H](C2)N(C)CC3 [Dextromethorphan, dextromethorphan]
[3]
  AUC(0-inf): 22.8 ng·h/mL
  half-life: 458 min
[3]; [10]
  Cmax: 1.24 ng/mL
[3]; [11]
  CL/F: 1310 (193.8) L/h

## N#Cc1ccc([C@H]2CCc3cncn32)c(F)c1 [Osilodrostat]
Clinical [5]
  AUC(0-inf): 3430 ng·h/mL
  Cmax: 392 ng/mL
  Tmax: ~1.53 h
  half-life: 284 min
[6]
  patients with normalized UFC: 92%
CYP3A4/5
  FDA inhibitor classification, CYP3A4/5: weak inhibitor (weak inhibitor, ≥1.25- but <2-fold increase in AUC)
[7]
  patients with normalized UFC: 79%
CYP1A2
  FDA inhibitor classification, CYP1A2: moderate inhibitor (moderate inhibitor, ≥2- but <5-fold increase in AUC)
[8]
  half-life: 3 to 5 h
CYP2D6
  FDA inhibitor classification, CYP2D6: weak inhibitor (weak inhibitor, ≥1.25- but <2-fold increase in AUC)
[9]
  fatigue (suspected drug related): 15%
  flatulence and diarrhea (suspected drug related): 5%
  grade 3 or 4 AEs or serious AEs: No grade 3 or 4 AEs, or serious AEs
  subjects with AEs suspected to be drug related: 30%
